In patent publication US20260216149A1, “USE OF DIAZAPHENANTHRENE PROTONATED DIMER” (XI’AN LIZE TECHNOLOGY PROJECT INVESTMENT CO., LTD., priority 2023, published 2026):

What was measured:
P. vulgaris = test: Tests for MIC and MBC; assay type: cell-based, Proteus vulgaris; conditions: unit assumed; for MIC: 12 h culture, absorbance 600 nm; for MBC: subculture further 12 h
P. fluorescens = test: Tests for MIC and MBC; assay type: cell-based, Pseudomonas fluorescens; conditions: unit assumed; for MIC: 12 h culture, absorbance 600 nm; for MBC: subculture further 12 h
B. cereus = test: Tests for MIC and MBC; assay type: cell-based, Bacillus cereus; conditions: unit assumed; for MIC: 12 h culture, absorbance 600 nm; for MBC: subculture further 12 h
S. lactis = test: Tests for MIC and MBC; assay type: cell-based, Streptococcus lactis; conditions: unit assumed; for MIC: 12 h culture, absorbance 600 nm; for MBC: subculture further 12 h
L. monocytogenes = test: Tests for MIC and MBC; assay type: cell-based, Listeria monocytogenes; conditions: unit assumed; for MIC: 12 h culture, absorbance 600 nm; for MBC: subculture further 12 h
A. flavus = test: Tests for MIC and MFC; assay type: cell-based, Aspergillus flavus; conditions: unit assumed; for MIC: 12 h culture, absorbance 600 nm; for MFC: subculture further 12 h
E. coli = conditions: 12 h culture, absorbance 600 nm
S. mutans = test: Tests for MIC and MBC; assay type: cell-based, Streptococcus mutans; conditions: unit assumed; for MIC: 12 h culture, absorbance 600 nm; for MBC: subculture further 12 h
T. rubrum = test: Tests for MIC and MFC; assay type: cell-based, Trichophyton rubrum; conditions: unit assumed; for MIC: 12 h culture, absorbance 600 nm; for MFC: subculture further 12 h
Y. enterocolitis = test: Tests for MIC and MBC; assay type: cell-based, Yersinia enterocolitis; conditions: unit assumed; for MIC: 12 h culture, absorbance 600 nm; for MBC: subculture further 12 h
C. neoformans = test: Tests for MIC and MFC; assay type: cell-based, Cryptococcus neoformans; conditions: unit assumed; for MIC: 12 h culture, absorbance 600 nm; for MFC: subculture further 12 h
P. aeruginosa = test: Tests for MIC and MBC; assay type: cell-based, Pseudomonas aeruginosa; conditions: unit assumed; for MIC: 12 h culture, absorbance 600 nm; for MBC: subculture further 12 h
E. faecalis = test: Tests for MIC and MBC; assay type: cell-based, Enterococcus faecalis; conditions: unit assumed; for MIC: 12 h culture, absorbance 600 nm; for MBC: subculture further 12 h
C. perfringens = conditions: 12 h culture, absorbance 600 nm
A. niger = test: Tests for MIC and MFC; assay type: cell-based, Aspergillus niger; conditions: unit assumed; for MIC: 12 h culture, absorbance 600 nm; for MFC: subculture further 12 h
S. enteritidis = test: Tests for MIC and MBC; assay type: cell-based, Salmonella enteritidis; conditions: unit assumed; for MIC: 12 h culture, absorbance 600 nm; for MBC: subculture further 12 h
M. furfur = test: Tests for MIC and MFC; assay type: cell-based, Malassezia furfur; conditions: unit assumed; for MIC: 12 h culture, absorbance 600 nm; for MFC: subculture further 12 h
B. subtilis = test: Tests for MIC and MBC; assay type: cell-based, Bacillus subtilis; conditions: unit assumed; for MIC: 12 h culture, absorbance 600 nm; for MBC: subculture further 12 h
H. staphylococcus = test: Tests for MIC and MBC; assay type: cell-based, hemolytic staphylococcus; conditions: unit assumed; for MIC: 12 h culture, absorbance 600 nm; for MBC: subculture further 12 h
K. pneumoniae = test: Tests for MIC and MBC; assay type: cell-based, Klebsiella pneumoniae; conditions: unit assumed; for MIC: 12 h culture, absorbance 600 nm; for MBC: subculture further 12 h
S. thermophilus = test: Tests for MIC and MBC; assay type: cell-based, Streptococcus thermophilus; conditions: unit assumed; for MIC: 12 h culture, absorbance 600 nm; for MBC: subculture further 12 h
M. globosa = test: Tests for MIC and MFC; assay type: cell-based, Malassezia globosa; conditions: unit assumed; for MIC: 12 h culture, absorbance 600 nm; for MFC: subculture further 12 h
S. aureus = conditions: 12 h culture, absorbance 600 nm
S. bovis = test: Tests for MIC and MBC; assay type: cell-based, Streptococcus bovis; conditions: unit assumed; for MIC: 12 h culture, absorbance 600 nm; for MBC: subculture further 12 h
C. albicans = test: Tests for MIC and MFC; assay type: cell-based, Candida albicans; conditions: unit assumed; for MIC: 12 h culture, absorbance 600 nm; for MFC: subculture further 12 h
C. diphtheriae = conditions: 12 h culture, absorbance 600 nm
S. epidermidis = test: Tests for MIC and MBC; assay type: cell-based, Staphylococcus epidermidis; conditions: unit assumed; for MIC: 12 h culture, absorbance 600 nm; for MBC: subculture further 12 h
[1] = system: Human lung adenocarcinoma A549 cell line; test: IC50 determination (CCK-8); assay type: cell-based; conditions: A549, DMEM HG, treated 8 h
Experimental: (§1) The cells were washed with PBS (pH 7.4), added with a CCK-8 solution (Beijing Beyotime Biotechnology) to each well according to the instructions, and then incubated for 4 h.

[2] = system: Human neuroblastoma SH-SY5Y cell line; test: IC50 determination (CCK-8); assay type: cell-based; conditions: DMEM/F12, treated 8 h
Experimental: as §1

[3] = system: Mouse melanoma B16 cell line; test: IC50 determination (CCK-8); assay type: cell-based; conditions: B16, RPMI 1640, treated 8 h
Experimental: as §1

[4] = system: Mouse liver cancer H22 cell line; test: IC50 determination (CCK-8); assay type: cell-based; conditions: H22, RPMI 1640, treated 8 h
Experimental: as §1

[5] = system: Human neuroglioma U521MG cell Line; test: IC50 determination (CCK-8); assay type: cell-based; conditions: DMEM HG, treated 8 h
Experimental: as §1

Cryptococcus neoformans = test: Test for Cryptococcus-infected mice; assay type: in vivo; conditions: Example 1 2, 4, 8 mg/kg iv, fluconazole 8 mg/kg ip

O=S(=O)(O)O.c1cnc2c(c1)ccc1cccnc12.c1cnc2c(c1)ccc1cccnc12.c1cnc2c(c1)ccc1cccnc12.c1cnc2c(c1)ccc1cccnc12 [Example 3]
MIC (P. vulgaris): 1 µg/mL
MBC (P. vulgaris): 6 µg/mL
MIC (P. fluorescens): 0.5 µg/mL
MBC (P. fluorescens): 3 µg/mL
MIC (B. cereus): 2 µg/mL
MBC (B. cereus): 9 µg/mL
MIC (S. lactis): 1.5 µg/mL
MBC (S. lactis): 6 µg/mL
MIC (L. monocytogenes): 0.3 µg/mL
MBC (L. monocytogenes): 1.5 µg/mL
MIC (A. flavus): 0.5 µg/mL
MFC (A. flavus): 6 µg/mL
MIC (E. coli): 0.5
MIC (S. mutans): 1 µg/mL
MBC (S. mutans): 5 µg/mL
MIC (T. rubrum): 2 µg/mL
MFC (T. rubrum): 12 µg/mL
MIC (Y. enterocolitis): 0.5 µg/mL
MBC (Y. enterocolitis): 3 µg/mL
MIC (C. neoformans): 0.5 µg/mL
MFC (C. neoformans): 6 µg/mL
MIC (P. aeruginosa): 0.5 µg/mL
MBC (P. aeruginosa): 3 µg/mL
MIC (E. faecalis): 8 µg/mL
MBC (E. faecalis): 30 µg/mL
MIC (C. perfringens): 3
MIC (A. niger): 0.5 µg/mL
MFC (A. niger): 6 µg/mL
MIC (S. enteritidis): 1 µg/mL
MBC (S. enteritidis): 5 µg/mL
MIC (M. furfur): 1 µg/mL
MFC (M. furfur): 6 µg/mL
MIC (B. subtilis): 0.6 µg/mL
MBC (B. subtilis): 3 µg/mL
MIC (H. staphylococcus): 0.2 µg/mL
MBC (H. staphylococcus): 0.6 µg/mL
MIC (K. pneumoniae): 1 µg/mL
MBC (K. pneumoniae): 6 µg/mL
MIC (S. thermophilus): 1 µg/mL
MBC (S. thermophilus): 5 µg/mL
MIC (M. globosa): 2 µg/mL
MFC (M. globosa): 12 µg/mL
MIC (S. aureus): 0.5
MIC (S. bovis): 0.8 µg/mL
MBC (S. bovis): 3 µg/mL
MIC (C. albicans): 0.5 µg/mL
MFC (C. albicans): 9 µg/mL
MIC (C. diphtheriae): 2
MIC (S. epidermidis): 0.5 µg/mL
MBC (S. epidermidis): 3 µg/mL

F[Si-2](F)(F)(F)(F)F.c1cnc2c(c1)ccc1ccc[nH+]c12.c1cnc2c(c1)ccc1ccc[nH+]c12.c1cnc2c(c1)ccc1cccnc12.c1cnc2c(c1)ccc1cccnc12 [Example 2]
MIC (P. vulgaris): 0.8 µg/mL
MBC (P. vulgaris): 4 µg/mL
MIC (P. fluorescens): 0.4 µg/mL
MBC (P. fluorescens): 3 µg/mL
MIC (B. cereus): 2 µg/mL
MBC (B. cereus): 6 µg/mL
MIC (S. lactis): 1.2 µg/mL
MBC (S. lactis): 4 µg/mL
MIC (L. monocytogenes): 0.3 µg/mL
MBC (L. monocytogenes): 1.2 µg/mL
MIC (A. flavus): 0.4 µg/mL
MFC (A. flavus): 6 µg/mL
MIC (E. coli): 0.4
MIC (S. mutans): 0.8 µg/mL
MBC (S. mutans): 4 µg/mL
MIC (T. rubrum): 1.6 µg/mL
MFC (T. rubrum): 10 µg/mL
MIC (Y. enterocolitis): 0.4 µg/mL
MBC (Y. enterocolitis): 2 µg/mL
MIC (C. neoformans): 0.4 µg/mL
MFC (C. neoformans): 5 µg/mL
MIC (P. aeruginosa): 0.4 µg/mL
MBC (P. aeruginosa): 2 µg/mL
MIC (E. faecalis): 6 µg/mL
MBC (E. faecalis): 20 µg/mL
MIC (C. perfringens): 2.5
MIC (A. niger): 0.4 µg/mL
MFC (A. niger): 4 µg/mL
MIC (S. enteritidis): 0.8 µg/mL
MBC (S. enteritidis): 4 µg/mL
MIC (M. furfur): 1 µg/mL
MFC (M. furfur): 6 µg/mL
MIC (B. subtilis): 0.6 µg/mL
MBC (B. subtilis): 2.5 µg/mL
MIC (H. staphylococcus): 0.2 µg/mL
MBC (H. staphylococcus): 0.5 µg/mL
MIC (K. pneumoniae): 0.8 µg/mL
MBC (K. pneumoniae): 5 µg/mL
MIC (S. thermophilus): 0.8 µg/mL
MBC (S. thermophilus): 4 µg/mL
MIC (M. globosa): 2 µg/mL
MFC (M. globosa): 10 µg/mL
MIC (S. aureus): 0.4
MIC (S. bovis): 0.6 µg/mL
MBC (S. bovis): 2 µg/mL
MIC (C. albicans): 0.4 µg/mL
MFC (C. albicans): 8 µg/mL
MIC (C. diphtheriae): 1.6
MIC (S. epidermidis): 0.4 µg/mL
MBC (S. epidermidis): 2.5 µg/mL

F[P-](F)(F)(F)(F)F.O=[N+]([O-])c1cc2ccc[nH+]c2c2ncccc12.O=[N+]([O-])c1cc2cccnc2c2ncccc12 [Example 7]
IC50 [1]: 320 µM
IC50 [2]: 32 µM
IC50 [3]: 320 µM
IC50 [4]: 320 µM
IC50 [5]: 320 µM
MIC (B. cereus): 0.5 µg/mL
MBC (B. cereus): 4 µg/mL

OC(Cn1cncn1)(Cn1cncn1)c1ccc(F)cc1F [fluconazole]
pathological symptoms of brains and lungs (cerebral edema, pneumonia) (Cryptococcus neoformans): pathological symptoms were improved
Cryptococcus-infected symptoms and weight (Cryptococcus neoformans; once a day for 9 days): the symptoms were improved, and the weight gained
